Laboratory results: patent publication US20130165464A1, “HETEROARYLS AND USES THEREOF” (MILLENNIUM PHARMACEUTICALS, INC., priority 2011, published 2013)

Target: T1, VPS34 (Homo sapiens, UniProt Q8NEB9)
T1 construct: GST (N); host or cells: SF9 insect cells (baculovirus)
Experiment: Human VPS34 enzyme assay (Adapta TR-FRET)
Type: biochemical
Details: for inhibition at 1.11 µM: 1 h, at a 1.11 μM concentration, read-out: VPS34 Percent Inhibition
Protocol: VPS34 (accession number GB:BCO33004) was cloned into pDEST20-Thombin as N-terminal GST tagged fusion proteins using the Gateway system (Invitrogen, catalog#11804-013). The sequences were verified before recombinant protein expression using the Baculovirus Expression System with Gateway® Technology.
For expression VPS34 was infected at 1MOI in SF9 cells and harvested 72 hours post infection.
For purification, VPS34 is purified by Glutathione Sepharose 4 Fast Flow (GE Healthcare #17-5132-03) followed by HiTrap Q (GE Healthcare #17-1153-01).
Human VPS34 Enzyme Assay Method
100 nL compounds in DMSO are added to wells of a 384 well microtitre plate (Greiner 780076). At room temperature: 5 ul VPS34 reaction buffer (Invitrogen Assay Buffer Q (diluted 1 in 5 with nanopure water) plus 2 mM DTT and 2 mM MnCl2) containing ATP (20 uM, Promega) and 200 uM PI-PS substrate (Invitrogen PV5122) is added followed immediately by 5 ul VPS34 reaction buffer (as above) containing VPS34 (5 nM, Millennium Protein Sciences Group) and the mixture is incubated with shaking at room temperature for 1 hour. Then 5 ul VPS34 stop-detect mix (as per Invitrogen Adapta Assay kit (PV5009) instructions (contains kinase quench buffer, TR-FRET buffer, Adapta Eu anti-ADP antibody and Alexa Fluor 647 ADP tracer)) is added to quench the reaction. The plates are then incubated for 30 minutes at room temperature with shaking and then read on a BMG PheraStar Plus reader.
For the assay methods described above, test compound percent inhibition, at various concentrations, is calculated relative to control (DMSO and EDTA) treated samples. Compound concentration versus percent inhibition curves are fitted to generate IC50 values. One skilled in the art will appreciate that the values generated either as percentage inhibition at a single concentration or IC50 values are subject to experimental variation.

T1 sequence (Q8NEB9 whole entry): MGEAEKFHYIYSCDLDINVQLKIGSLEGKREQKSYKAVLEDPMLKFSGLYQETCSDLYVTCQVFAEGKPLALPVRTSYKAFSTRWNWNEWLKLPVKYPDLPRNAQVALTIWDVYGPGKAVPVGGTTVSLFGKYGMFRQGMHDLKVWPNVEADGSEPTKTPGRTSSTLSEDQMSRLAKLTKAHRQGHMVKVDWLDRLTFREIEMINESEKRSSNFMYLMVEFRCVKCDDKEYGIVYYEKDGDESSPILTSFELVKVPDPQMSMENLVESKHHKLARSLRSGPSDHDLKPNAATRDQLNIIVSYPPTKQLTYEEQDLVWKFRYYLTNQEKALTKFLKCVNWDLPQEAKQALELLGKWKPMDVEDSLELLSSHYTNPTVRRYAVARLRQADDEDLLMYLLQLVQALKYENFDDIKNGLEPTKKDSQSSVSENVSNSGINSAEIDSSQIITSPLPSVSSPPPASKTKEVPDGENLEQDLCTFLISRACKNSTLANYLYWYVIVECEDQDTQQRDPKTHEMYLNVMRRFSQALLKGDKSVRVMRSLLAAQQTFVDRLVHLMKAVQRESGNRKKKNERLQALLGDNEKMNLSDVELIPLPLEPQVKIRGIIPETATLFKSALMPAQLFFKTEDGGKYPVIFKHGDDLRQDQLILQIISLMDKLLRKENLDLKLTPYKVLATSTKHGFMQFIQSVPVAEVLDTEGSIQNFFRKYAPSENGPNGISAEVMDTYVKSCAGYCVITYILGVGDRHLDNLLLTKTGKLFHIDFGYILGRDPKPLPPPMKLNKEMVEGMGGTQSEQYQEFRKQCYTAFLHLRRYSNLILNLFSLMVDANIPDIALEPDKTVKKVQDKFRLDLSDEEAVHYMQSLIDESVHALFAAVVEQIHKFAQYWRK

Row | IC50 [nM] | inhibition at 1.11 µM [%] | Structure (SMILES)
1 | 150 to 1000 | 75 | CC(=O)Nc1cc(-n2cc(-c3nc[nH]n3)c(-c3ccccc3SC(F)(F)F)n2)c(C)cn1 [I-59, N-{5-methyl-4-[4-(1H-1,2,4-triazol-3-yl)-3-{2-[(trifluoromethyl)sulfanyl]phenyl}-1H-pyrazol-1-yl]pyridin-2-yl}acetamide]
2 |  | > 99 | COC(=O)Nc1cc(-n2cc(C(N)=O)c(-c3cc(CN4CCCC4)ccc3Cl)c2)c(C)cn1 [I-80, methyl (4-{3-carbamoyl-4-[2-chloro-5-(pyrrolidin-1-ylmethyl)phenyl]-1H-pyrrol-1-yl}-5-methylpyridin-2-yl)carbamate]
3 | 1000 to 5000 | 27 | NC(=O)c1cn(-c2ccnc(NCCc3ccc(O)cc3)n2)nc1-c1ccccc1Cl [I-43, 3-(2-chlorophenyl)-1-(2-{[2-(4-hydroxyphenyl)ethyl]amino}pyrimidin-4-yl)-1H-pyrazole-4-carboxamide]
4 | 150 to 1000 | 94 | CCc1ccccc1-c1nn(-c2cc(NC(C)=O)ncc2C)cc1-c1nc[nH]n1 [I-57, N-{4-[3-(2-ethylphenyl)-4-(1H-1,2,4-triazol-3-yl)-1H-pyrazol-1-yl]-5-methylpyridin-2-yl}acetamide]
5 |  | 78 | CC(=O)Nc1cc(-n2cc(C(N)=O)c(-c3ccccc3Cl)c2)c(C)cn1 [I-41, 1-(2-acetamido-5-methylpyridin-4-yl)-4-(2-chlorophenyl)-1H-pyrrole-3-carboxamide]
6 | < 50 | > 99 | CC(=O)Nc1cc(-n2cc(-c3nc[nH]n3)c(-c3ccccc3Cl)c2)c(C)cn1 [I-31, N-{4-[3-(2-chlorophenyl)-4-(1H-1,2,4-triazol-3-yl)-1H-pyrrol-1-yl]-5-methylpyridin-2-yl}acetamide]
7 | < 50 | > 99 | CCC(=O)Nc1cc(-n2cc(-c3nc[nH]n3)c(-c3ccccc3Cl)c2)c(C)cn1 [I-50, N-{4-[3-(2-chlorophenyl)-4-(1H-1,2,4-triazol-3-yl)-1H-pyrrol-1-yl]-5-methylpyridin-2-yl}propanamide]
8 | 150 to 1000 | > 99 | CC(=O)Nc1cc(-n2cc(C(N)=O)c(-c3ccccc3Cl)n2)c(Cl)cn1 [I-9, 1-(2-acetamido-5-chloropyridin-4-yl)-3-(2-chlorophenyl)-1H-pyrazole-4-carboxamide]
9 | 1000 to 5000 | 18 | CC(=O)Nc1cc(-n2nc(-c3ccccc3Cl)c(-c3nc[nH]n3)c2Br)c(Br)cn1 [I-4, N-{5-bromo-4-[5-bromo-3-(2-chlorophenyl)-4-(1H-1,2,4-triazol-3-yl)-1H-pyrazol-1-yl]pyridin-2-yl}acetamide]
10 |  | > 99 | COC(=O)Nc1cc(-n2cc(-c3nc[nH]n3)c(-c3cc(CN4CCCC4)ccc3Cl)n2)c(C)cn1 [I-61, methyl (4-{3-[2-chloro-5-(pyrrolidin-1-ylmethyl)phenyl]-4-(1H-1,2,4-triazol-3-yl)-1H-pyrazol-1-yl}-5-methylpyridin-2-yl)carbamate]
11 |  | > 99 | CC(=O)Nc1cc(-n2cc(C(N)=O)c(-c3ccccc3Cl)n2)ccn1 [I-8, 1-(2-acetamidopyridin-4-yl)-3-(2-chlorophenyl)-1H-pyrazole-4-carboxamide]
12 |  | 79 | CC(=O)Nc1cc(-n2cc(C(N)=O)c(-c3cc(CN4CCCC4)ccc3Cl)c2)c(C)cn1 [I-77, 1-(2-acetamido-5-methylpyridin-4-yl)-4-[2-chloro-5-(pyrrolidin-1-ylmethyl)phenyl]-1H-pyrrole-3-carboxamide]
13 |  | > 99 | CC(=O)Nc1cc(-n2cc(-c3nc[nH]n3)c(-c3ccccc3C)n2)c(C)cn1 [I-69, N-{5-methyl-4-[3-(2-methylphenyl)-4-(1H-1,2,4-triazol-3-yl)-1H-pyrazol-1-yl]pyridin-2-yl}acetamide]
14 |  | > 99 | COCCOC(=O)Nc1cc(-n2cc(C(N)=O)c(-c3ccccc3Cl)c2)c(C)cn1 [I-54, 2-methoxyethyl {4-[3-carbamoyl-4-(2-chlorophenyl)-1H-pyrrol-1-yl]-5-methylpyridin-2-yl}carbamate]

Continued, compound first:

Row | Structure (SMILES) | IC50 [nM] | inhibition at 1.11 µM [%]
15 | Cc1cnc(NC(=O)C2CC2)cc1-n1cc(C(N)=O)c(-c2ccccc2Cl)c1 [I-40, 4-(2-chlorophenyl)-1-{2-[(cyclopropylcarbonyl)amino]-5-methylpyridin-4-yl}-1H-pyrrole-3-carboxamide] | < 50 | > 99
16 | COC(=O)Nc1cc(-n2cc(C(N)=O)c(-c3ccccc3Cl)c2)c(Cl)cn1 [I-51, methyl {4-[3-carbamoyl-4-(2-chlorophenyl)-1H-pyrrol-1-yl]-5-chloropyridin-2-yl}carbamate] |  | 85
17 | CC(=O)Nc1cc(-n2cc(-c3ccccc3)c(-c3nnc[nH]3)c2)c(C)cn1 [I-53, N-{5-methyl-4-[3-phenyl-4-(4H-1,2,4-triazol-3-yl)-1H-pyrrol-1-yl]pyridin-2-yl}acetamide] | 150 to 1000 | 81
18 | CC(=O)Nc1cc(-n2cc(-c3ncn[nH]3)c(-c3ccnc(Cl)c3)n2)c(C)cn1 [I-106, N-{4-[3-(2-chloropyridin-4-yl)-4-(1H-1,2,4-triazol-5-yl)-1H-pyrazol-1-yl]-5-methylpyridin-2-yl}acetamide] | 150 to 1000 | 54
19 | COC(=O)Nc1cc(-n2cc(-c3nc[nH]n3)c(-c3ccccc3Cl)c2)c(C)cn1 [I-55, methyl {4-[3-(2-chlorophenyl)-4-(1H-1,2,4-triazol-3-yl)-1H-pyrrol-1-yl]-5-methylpyridin-2-yl}carbamate] | < 50 | > 99
20 | CC(=O)Nc1cc(-n2cc(-c3ncc[nH]3)c(-c3ccccc3Cl)n2)ccn1 [I-32, N-{4-[3-(2-chlorophenyl)-4-(1H-imidazol-2-yl)-1H-pyrazol-1-yl]pyridin-2-yl}acetamide] | < 50 | > 99
21 | Cc1cnc(NC(=O)OCCF)cc1-n1cc(C(N)=O)c(-c2ccccc2Cl)c1 [I-83, 2-fluoroethyl {4-[3-carbamoyl-4-(2-chlorophenyl)-1H-pyrrol-1-yl]-5-methylpyridin-2-yl}carbamate] |  | > 99
22 | Cc1cnc(NC(=O)C2CC2)cc1-n1cc(-c2nc[nH]n2)c(-c2ccc(Cl)cc2Cl)n1 [I-67, N-{4-[3-(2,4-dichlorophenyl)-4-(1H-1,2,4-triazol-3-yl)-1H-pyrazol-1-yl]-5-methylpyridin-2-yl}cyclopropanecarboxamide] |  | > 99
23 | CC(=O)Nc1cc(-n2cc(-c3ncc[nH]3)c(-c3ccccc3Cl)n2)c(C)cn1 [I-27, N-{4-[3-(2-chlorophenyl)-4-(1H-imidazol-2-yl)-1H-pyrazol-1-yl]-5-methylpyridin-2-yl}acetamide] | < 50 | > 99
24 | CC(=O)Nc1cc(-n2cc(C(N)=O)c(-c3ccccc3S(C)(=O)=O)c2)ccn1 [I-47, 1-(2-acetamidopyridin-4-yl)-4-[2-(methylsulfonyl)phenyl]-1H-pyrrole-3-carboxamide] | 150 to 1000 | 64
25 | CC(=O)Nc1cc(-n2cc(C(N)=O)c(-c3ccccc3Cl)c2)c(Cl)cn1 [I-37, 1-(2-acetamido-5-chloropyridin-4-yl)-4-(2-chlorophenyl)-1H-pyrrole-3-carboxamide] | 150 to 1000 | 88
26 | CC(=O)Nc1cc(-n2cc(CO)c(-c3ccccc3Cl)c2)c(C)cn1 [I-85, N-{4-[3-(2-chlorophenyl)-4-(hydroxymethyl)-1H-pyrrol-1-yl]-5-methylpyridin-2-yl}acetamide] | 150 to 1000 | 93
